Data taken from the supplement of paper PMC11451515.

Legend:
SEM cells [1] = assay: AUC of viability dose-response curve (% viability x log10 dose units); higher = less sensitive; details: 48 h
Summary of the method: (§1)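 Seeding of medium-adapted leukemia cells was at 500 or 1000 cells/well in 1536-well plates, followed by 48 h at 37°C with library compounds in DMSO at 11 threefold doses from 47 μM to 0.79 nM. CellTiter-Glo One luminescence was normalised per plate to DMSO and cell-free wells and fitted as a four-parameter log-logistic function of log10 dose. Area under the curve was integrated by trapezoidal rule, with curves exceeding full viability scaled and curves failing quality control removed.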

P12-Ichikawa [2] = assay: as above; details: 48 h
Summary of the method: as §1

NOMO1 = assay: as above; details: 48 h
Summary of the method: as §1

SEM cells [3] = assay: cell viability relative to DMSO control; higher = less cytotoxic; details: HPLM + 10% dialyzed FBS, 48 h
Summary of the method: (§2)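 NOMO1, SEM and P12-Ichikawa leukemia cells spent at least four passages adapting to each medium before use. They were seeded at 500 cells/well (NOMO1, SEM) or 1000 cells/well (P12-Ichikawa) in 5 μl in 1536-well plates and pin-dosed with library compounds in DMSO at 11 threefold steps from 47 μM down to 0.79 nM. After 48 h at 37°C, CellTiter-Glo One luminescence was read. Viability is reported as a percentage of the DMSO wells on each plate, with cell-free wells as background.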

P12-Ichikawa [4] = assay: as above; details: RPMI 5 mM glucose + 10% dialyzed FBS, 48 h
Summary of the method: as §2

[5] = RPMI 5 mM glucose + 10% dialyzed FBS

SMILES | AUC of viability dose-response curve (SEM cells [1]; HPLM + 10% dialyzed FBS) | AUC of viability dose-response curve (SEM cells [1]; RPMI 5 mM glucose + 10% FBS) | AUC of viability dose-response curve (SEM cells [1]; [5]) | AUC of viability dose-response curve (P12-Ichikawa [2]; HPLM + 10% dialyzed FBS) | AUC of viability dose-response curve (P12-Ichikawa [2]; RPMI 5 mM glucose + 10% FBS) | AUC of viability dose-response curve (P12-Ichikawa [2]; [5]) | AUC of viability dose-response curve (NOMO1; HPLM + 10% dialyzed FBS) | AUC of viability dose-response curve (NOMO1; RPMI 5 mM glucose + 10% FBS) | AUC of viability dose-response curve (NOMO1; [5]) | cell viability (SEM cells [3]; 0.000781 µM) | cell viability (SEM cells [3]; 0.00234 µM) | cell viability (SEM cells [3]; 0.00702 µM) | cell viability (SEM cells [3]; 0.0211 µM) | cell viability (SEM cells [3]; 0.0632 µM) | cell viability (SEM cells [3]; 0.19 µM) | cell viability (SEM cells [3]; 0.569 µM) | cell viability (SEM cells [3]; 1.71 µM) | cell viability (SEM cells [3]; 5.12 µM) | cell viability (SEM cells [3]; 15.4 µM) | cell viability (SEM cells [3]; 46.1 µM) | cell viability (P12-Ichikawa [4]; 0.000781 µM) | cell viability (P12-Ichikawa [4]; 0.00234 µM) | cell viability (P12-Ichikawa [4]; 0.00702 µM) | cell viability (P12-Ichikawa [4]; 0.0211 µM) | cell viability (P12-Ichikawa [4]; 0.0632 µM) | cell viability (P12-Ichikawa [4]; 0.19 µM) | cell viability (P12-Ichikawa [4]; 0.569 µM) | cell viability (P12-Ichikawa [4]; 1.71 µM) | cell viability (P12-Ichikawa [4]; 5.12 µM) | cell viability (P12-Ichikawa [4]; 15.4 µM) | cell viability (P12-Ichikawa [4]; 46.1 µM)
C\C1=N\N=C(\C2=CC=C(N)C=C2)C3=CC4=C(OCO4)C=C3C1 | 467 | 470 | 464 | 469 | 465 | 465 | 471 | 471 | 464 | 129% | 115% | 122% | 136% | 126% | 123% | 131% | 131% | 150% | 138% | 107% | – | – | – | – | – | – | – | – | – | – | –
O=c1cc(O)c(Cl)c[nH]1 | 455 | 416 | 453 | 391 | 395 | 417 | 378 | 396 | 394 | – | – | – | – | – | – | – | – | – | – | – | – | – | – | – | – | – | – | – | – | – | –
COCCCOc1cc(C[C@@H](C[C@H](N)[C@@H](O)C[C@H](C(=O)NCC(C)(C)C(N)=O)C(C)C)C(C)C)ccc1OC | 473 | 461 | 458 | 473 | 471 | 475 | 457 | 474 | 461 | – | – | – | – | – | – | – | – | – | – | – | – | – | – | – | – | – | – | – | – | – | –
NC/1=N/C(=O)N/C=C1F | 468 | 464 | 429 | 455 | 438 | 432 | 417 | 432 | 405 | 118% | 145% | 123% | 134% | 118% | 125% | 125% | 136% | 130% | 120% | 103% | – | – | – | – | – | – | – | – | – | – | –
CCN1CCCC1CNC(=O)c1cc(S(=O)(=O)CC)c(N)cc1OC (configuration not stated) | 474 | 474 | 453 | 463 | 461 | 469 | 458 | 459 | 469 | – | – | – | – | – | – | – | – | – | – | – | – | – | – | – | – | – | – | – | – | – | –
Cc1c(C(=O)Nc2ccc(N3C[C@@H](C)O[C@@H](C)C3)nc2)cccc1-c1ccc(OC(F)(F)F)cc1 | 361 | 335 | 356 | 349 | 372 | 372 | 366 | 382 | 408 | 113% | 125% | 116% | 133% | 131% | 124% | 132% | 108% | 16.3% | 6.58% | 4.61% | 128% | 119% | 119% | 131% | 131% | 126% | 124% | 104% | 48.6% | 7.92% | 6.12%
O=C(NOC[C@H](O)CO)c1ccc(F)c(F)c1Nc1ccc(I)cc1F | 354 | 362 | 347 | 434 | 384 | 445 | 261 | 274 | 260 | – | – | – | – | – | – | – | – | – | – | – | – | – | – | – | – | – | – | – | – | – | –
Cc1cccc(C)c1NC(=O)CN1CCCC1=O | 470 | 461 | 431 | 444 | 434 | 458 | 463 | 458 | 470 | 115% | 121% | 125% | 123% | 125% | 122% | 126% | 129% | 122% | 116% | 103% | – | – | – | – | – | – | – | – | – | – | –
